Test results reported in US20120142705A1, “ISATIN AND OXINDOLE COMPOUNDS” (priority 2010, published 2012).

Target: T1, Recombinant human liver GK1 (GST-GK) (Homo sapiens, UniProt P35557)
T1 construct: made in house; host or cells: E. coli
T1 sequence (P35557 1-466 isoform P35557-2): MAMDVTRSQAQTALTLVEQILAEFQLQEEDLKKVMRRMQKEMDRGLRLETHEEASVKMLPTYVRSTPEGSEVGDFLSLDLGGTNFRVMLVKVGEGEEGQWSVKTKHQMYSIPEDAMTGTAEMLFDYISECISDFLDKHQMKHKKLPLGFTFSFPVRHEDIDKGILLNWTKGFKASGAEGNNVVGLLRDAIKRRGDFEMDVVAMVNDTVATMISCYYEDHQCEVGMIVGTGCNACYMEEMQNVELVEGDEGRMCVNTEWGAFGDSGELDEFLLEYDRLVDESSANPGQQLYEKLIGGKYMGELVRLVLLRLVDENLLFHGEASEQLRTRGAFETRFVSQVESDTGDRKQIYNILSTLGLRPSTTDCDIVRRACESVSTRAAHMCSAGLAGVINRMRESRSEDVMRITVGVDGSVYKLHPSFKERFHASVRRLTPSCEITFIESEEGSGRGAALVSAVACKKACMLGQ
Assay: In vitro glucokinase activity, G6PDH-coupled spectrophotometric assay
Assay type: biochemical
Conditions: 5 mM D-glucose, 30° C.; for SC1.5 (concentration of activator that produced a 50% increase in the activity of GK): pH 7.1
Outline: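 GST-fused human liver GK1 from E. coli, run at 30° C. in pH 7.1 HEPES with 5 mM glucose, 1 mM ATP and 10% DMSO, coupled via G6PDH to NADH. OD340 rate measured after enzyme start; SC1.5 is the activator concentration raising activity 50% over DMSO control.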

| SMILES | fold induction at 30 µM | SC1.5 (concentration of activator that produced a 50% increase in the activity of GK) [µM] |
| --- | --- | --- |
| Cc1ccc2c(c1)C(=O)C(=O)N2C(CC(C)C)C(=O)Nc1ccn(C)n1 (stereo not shown) [Example 86, 4-Methyl-2-(5-methyl-2,3-dioxo-2,3-dihydro-indol-1-yl)-pentanoic acid (1-methyl-1H-pyrazol-3-yl)-amide] | 1.44 | – |
| CC(C)CC(C(=O)Nc1cnccn1)N1C(=O)Cc2cc(Cl)ccc21 (stereo not shown) [Example 106, 2-(5-Chloro-2-oxo-2,3-dihydro-indol-1-yl)-4-methyl-pentanoic acid pyrazin-2-ylamide] | – | 20.67 |
| CC(C)CC(C(=O)Nc1ccccn1)N1C(=O)C(=O)c2ccccc21 (stereo not shown) [Example 9, 2-(2,3-Dioxo-2,3-dihydro-indol-1-yl)-4-methyl-pentanoic acid pyridin-2-ylamide] | 1.33 | – |
| COc1ccc2c(c1)C(=O)C(=O)N2C(CC1CCCC1)C(=O)Nc1ccccn1 (stereo not shown) [Example 46, 3-Cyclopentyl-2-(5-methoxy-2,3-dioxo-2,3-dihydro-indol-1-yl)-N-pyridin-2-yl-propionamide] | – | 2.32 |
| Cn1ccc(NC(=O)C(CC2CCCC2)N2C(=O)C(=O)c3cc(Cl)ccc32)n1 (stereo not shown) [Example 95, 2-(5-Chloro-2,3-dioxo-2,3-dihydro-indol-1-yl)-3-cyclopentyl-N-(1-methyl-1H-pyrazol-3-yl)-propionamide] | – | 7.27 |
| O=C1C(=O)N(C(CC2CCCC2)C(=O)Nc2nccs2)c2ccccc21 (stereo not shown) [Example 4, 3-Cyclopentyl-2-(2,3-dioxo-2,3-dihydro-indol-1-yl)-N-thiazol-2-yl-propionamide] | – | 5.21 |
| O=C1C(=O)N(C(CC2CCCC2)C(=O)Nc2ccccn2)c2ccc(Cl)cc21 (stereo not shown) [Example 94, 2-(5-Chloro-2,3-dioxo-2,3-dihydro-indol-1-yl)-3-cyclopentyl-N-pyridin-2-yl-propionamide] | – | 1.04 |
| Cc1ccc2c(c1)CC(=O)N2C(CC(C)C)C(=O)Nc1cnccn1 (stereo not shown) [Example 91, 4-Methyl-2-(5-methyl-2-oxo-2,3-dihydro-indol-1-yl)-pentanoic acid pyrazin-2-ylamide] | – | 28.45 |
| Cc1ccc2c(c1)CC(=O)N2C(CC(C)C)C(=O)Nc1ccn(C)n1 (stereo not shown) [Example 89, 4-Methyl-2-(5-methyl-2-oxo-2,3-dihydro-indol-1-yl)-pentanoic acid (1-methyl-1H-pyrazol-3-yl)-amide] | 1.23 | – |
| Cn1ccc(NC(=O)C(CC2CCCC2)N2C(=O)C(=O)c3cc(Br)ccc32)n1 (stereo not shown) [Example 62, 2-(5-Bromo-2,3-dioxo-2,3-dihydro-indol-1-yl)-3-cyclopentyl-N-(1-methyl-1H-pyrazol-3-yl)-propionamide] | – | 6.18 |
| O=C1C(=O)N(C(CC2CCCC2)C(=O)Nc2ccn(C[C@@H](O)CO)n2)c2ccc(Cl)cc21 (stereo partly drawn) [Example 93, 2-(5-Chloro-2,3-dioxo-2,3-dihydro-indol-1-yl)-3-cyclopentyl-N-[1-((R)-2,3-dihydroxy-propyl)-1H-pyrazol-3-yl]-propionamide] | – | 3.36 |
| Cc1ccc2c(c1)CC(=O)N2C(CC1CCCC1)C(=O)Nc1cnccn1 (stereo not shown) [Example 83, 3-Cyclopentyl-2-(5-methyl-2-oxo-2,3-dihydro-indol-1-yl)-N-pyrazin-2-yl-propionamide] | – | 4.47 |
| CC(C)CC(C(=O)Nc1ccn(C)n1)N1C(=O)Cc2cc(Br)ccc21 (stereo not shown) [Example 73, 2-(5-Bromo-2-oxo-2,3-dihydro-indol-1-yl)-4-methyl-pentanoic acid (1-methyl-1H-pyrazol-3-yl)-amide] | – | 17.96 |
| CC(C)CC(C(=O)Nc1ccn(C)n1)N1C(=O)Cc2cc(OC(F)(F)F)ccc21 (stereo not shown) [Example 42, 4-Methyl-2-(2-oxo-5-trifluoromethoxy-2,3-dihydro-indol-1-yl)-pentanoic acid (1-methyl-1H-pyrazol-3-yl)-amide] | – | 8.12 |
| Cc1ccc2c(c1)CC(=O)N2C(CC1CCCC1)C(=O)Nc1ccccn1 (stereo not shown) [Example 80, 3-Cyclopentyl-2-(5-methyl-2-oxo-2,3-dihydro-indol-1-yl)-N-pyridin-2-yl-propionamide] | – | 3.83 |
| Cc1ccc2c(c1)CC(=O)N2C(CC1CCCC1)C(=O)Nc1nccs1 (stereo not shown) [Example 82, 3-Cyclopentyl-2-(5-methyl-2-oxo-2,3-dihydro-indol-1-yl)-N-thiazol-2-yl-propionamide] | – | 2.45 |
| O=C1C(=O)N(C(CC2CCCC2)C(=O)Nc2ccccn2)c2ccc(OC(F)(F)F)cc21 (stereo not shown) [Example 30, 3-Cyclopentyl-2-(2,3-dioxo-5-trifluoromethoxy-2,3-dihydro-indol-1-yl)-N-pyridin-2-yl-propionamide] | – | 0.33 |
| COc1ccc2c(c1)CC(=O)N2C(CC(C)C)C(=O)Nc1nccs1 (stereo not shown) [Example 56, 2-(5-Methoxy-2-oxo-2,3-dihydro-indol-1-yl)-4-methyl-pentanoic acid thiazol-2-ylamide] | – | 22.75 |
| CC(C)CC(C(=O)Nc1nccs1)N1C(=O)C(=O)c2cc(Cl)ccc21 (stereo not shown) [Example 101, 2-(5-Chloro-2,3-dioxo-2,3-dihydro-indol-1-yl)-4-methyl-pentanoic acid thiazol-2-ylamide] | 1.4 | – |
| O=C(Nc1cnccn1)C(CC1CCCC1)N1C(=O)Cc2cc(OC(F)(F)F)ccc21 (stereo not shown) [Example 36, 3-Cyclopentyl-2-(2-oxo-5-trifluoromethoxy-2,3-dihydro-indol-1-yl)-N-pyrazin-2-yl-propionamide] | – | 0.63 |

Now from value to molecule:

| fold induction at 30 µM | SC1.5 (concentration of activator that produced a 50% increase in the activity of GK) [µM] | SMILES |
| --- | --- | --- |
| – | 2.28 | Cc1ccc2c(c1)N(C(CC1CCCC1)C(=O)Nc1ccn(C)n1)C(=O)C2 (stereo not shown) [Example 131, 3-Cyclopentyl-2-(6-methyl-2-oxo-2,3-dihydro-indol-1-yl)-N-(1-methyl-1H-pyrazol-3-yl)-propionamide] |
| – | 0.88 | Cn1ccc(NC(=O)C(CC2CCCC2)N2C(=O)Cc3ccc(Br)cc32)n1 (stereo not shown) [Example 136, 2-(6-Bromo-2-oxo-2,3-dihydro-indol-1-yl)-3-cyclopentyl-N-(1-methyl-1H-pyrazol-3-yl)-propionamide] |
| – | 1.1 | Cn1ccc(NC(=O)C(CC2CCCC2)N2C(=O)Cc3ccc(Cl)cc32)n1 (stereo not shown) [Example 124, 2-(6-Chloro-2-oxo-2,3-dihydro-indol-1-yl)-3-cyclopentyl-N-(1-methyl-1H-pyrazol-3-yl)-propionamide] |
| – | 0.91 | CC(C)CC(C(=O)Nc1ccccn1)N1C(=O)Cc2ccc(Cl)cc21 (stereo not shown) [Example 114, 2-(6-Chloro-2-oxo-2,3-dihydro-indol-1-yl)-4-methyl-pentanoic acid pyridin-2-ylamide] |
| – | 3.29 | CC(C)CC(C(=O)Nc1nccs1)N1C(=O)C(=O)c2ccc(Cl)cc21 (stereo not shown) [Example 109, 2-(6-Chloro-2,3-dioxo-2,3-dihydro-indol-1-yl)-4-methyl-pentanoic acid thiazol-2-ylamide] |
| – | 15.93 | CC(C)CC(C(=O)Nc1ccn(C)n1)N1C(=O)C(=O)c2ccc(Cl)cc21 (stereo not shown) [Example 111, 2-(6-Chloro-2,3-dioxo-2,3-dihydro-indol-1-yl)-4-methyl-pentanoic acid (1-methyl-1H-pyrazol-3-yl)-amide] |
| – | 0.45 | O=C(Nc1nccs1)C(CC1CCCC1)N1C(=O)Cc2ccc(F)cc21 (stereo not shown) [Example 125, 3-Cyclopentyl-2-(6-fluoro-2-oxo-2,3-dihydro-indol-1-yl)-N-thiazol-2-yl-propionamide] |
| – | 0.81 | O=C(Nc1cnccn1)C(CC1CCCC1)N1C(=O)Cc2ccc(F)cc21 (stereo not shown) [Example 128, 3-Cyclopentyl-2-(6-fluoro-2-oxo-2,3-dihydro-indol-1-yl)-N-pyrazin-2-yl-propionamide] |
| – | 0.23 | Cc1ccc2c(c1)N(C(CC1CCCC1)C(=O)Nc1ccccn1)C(=O)C2 (stereo not shown) [Example 132, 3-Cyclopentyl-2-(6-methyl-2-oxo-2,3-dihydro-indol-1-yl)-N-pyridin-2-yl-propionamide] |
| – | 0.38 | O=C(Nc1cnccn1)C(CC1CCCC1)N1C(=O)Cc2ccc(Cl)cc21 (stereo not shown) [Example 121, 2-(6-Chloro-2-oxo-2,3-dihydro-indol-1-yl)-3-cyclopentyl-N-pyrazin-2-yl-propionamide] |
| – | 1.86 | Cn1ccc(NC(=O)C(CC2CCCC2)N2C(=O)Cc3ccc(F)cc32)n1 (stereo not shown) [Example 126, 3-Cyclopentyl-2-(6-fluoro-2-oxo-2,3-dihydro-indol-1-yl)-N-(1-methyl-1H-pyrazol-3-yl)-propionamide] |
